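Briefly, cells in 96-well plates were exposed to five compound concentrations for 48 h, and endpoints were estimated by linear interpolation. GI50 is the concentration that inhibits growth by half.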 Active and inactive are the calls of the source. No stated cut-off is given here; in the data, active = GI50 up to about 1.1 µM and inactive = higher.
Assays:
Assay in all cases: DTP human tumour cell line panel, 48 h
[1] = system: HT-29
[2] = system: CCRF-CEM
[3] = system: ACHN
[4] = system: NCI-H460
[5] = system: TK-10
[6] = system: OVCAR-8
[7] = system: SK-MEL-28
[8] = system: UACC-257
[9] = system: KM12
[10] = system: DMS-273
[11] = system: SK-OV-3
[12] = system: M19-MEL
[13] = system: SNB-75
[14] = system: SNB-78
[15] = system: HOP-92
[16] = system: SN12C
[17] = system: NCI-H226
[18] = system: UACC-62
[19] = system: M14
[20] = system: Malme-3M
[21] = system: OVCAR-3
[22] = system: LOX IMVI
[23] = system: NCI-H23
[24] = system: LXFL 529
[25] = system: EKVX
[26] = system: SK-MEL-5
[27] = system: IGROV-1
[28] = system: SF-539
[29] = system: SF-268
[30] = system: SNB-19
[31] = system: DMS-114
[32] = system: NCI-H522
[33] = system: SK-MEL-2
[34] = system: MOLT-4
[35] = system: RPMI-8226
[36] = system: CAKI-1
[37] = system: HOP-62
[38] = system: UO-31
[39] = system: COLO 205
[40] = system: DLD-1
[41] = system: RXF 393
[42] = system: HCT-116
[43] = system: HOP-18
[44] = system: XF498
[45] = system: 786-0
[46] = system: A549
[47] = system: HCT-15
[48] = system: HCC 2998
[49] = system: SF-295
[50] = system: SW-620
[51] = system: A498
[52] = system: K562
[53] = system: HL-60
[54] = system: SR
[55] = system: KM-20L2
[56] = system: OVCAR-5
[57] = system: U-251
[58] = system: OVCAR-4

Structure (SMILES): O=C1[C@@H]2C3SC(c4ccccc43)[C@@H]2C(=O)N1c1ccccc1
- GI50 [1]: > 100 µM (inactive)
- GI50 [2]: > 100 µM (inactive)
- GI50 [3]: > 100 µM (inactive)
- GI50 [4]: > 100 µM (inactive)
- GI50 [5]: 97.1 µM (inactive)
- GI50 [6]: > 100 µM (inactive)
- GI50 [7]: > 100 µM (inactive)
- GI50 [8]: > 100 µM (inactive)
- GI50 [9]: > 100 µM (inactive)
- GI50 [10]: > 100 µM (inactive)
- GI50 [11]: > 83.4 µM (inactive)
- GI50 [12]: > 100 µM (inactive)
- GI50 [13]: 28.6 µM (inactive)
- GI50 [14]: > 100 µM (inactive)
- GI50 [15]: > 64.1 µM (inactive)
- GI50 [16]: > 100 µM (inactive)
- GI50 [17]: > 100 µM (inactive)
- GI50 [18]: > 100 µM (inactive)
- GI50 [19]: > 100 µM (inactive)
- GI50 [20]: > 100 µM (inactive)
- GI50 [21]: > 100 µM (inactive)
- GI50 [22]: > 100 µM (inactive)
- GI50 [23]: > 100 µM (inactive)
- GI50 [24]: > 100 µM (inactive)
- GI50 [25]: > 100 µM (inactive)
- GI50 [26]: > 100 µM (inactive)
- GI50 [27]: > 100 µM (inactive)
- GI50 [28]: > 75 µM (inactive)
- GI50 [29]: > 95.1 µM (inactive)
- GI50 [30]: 41.9 µM (inactive)
- GI50 [31]: > 100 µM (inactive)
- GI50 [32]: > 100 µM (inactive)
- GI50 [33]: > 100 µM (inactive)
- GI50 [34]: > 100 µM (inactive)
- GI50 [35]: > 100 µM (inactive)
- GI50 [36]: > 100 µM (inactive)
- GI50 [37]: > 100 µM (inactive)
- GI50 [38]: > 100 µM (inactive)
- GI50 [39]: > 100 µM (inactive)
- GI50 [40]: > 100 µM (inactive)
- GI50 [41]: > 100 µM (inactive)
- GI50 [42]: > 100 µM (inactive)
- GI50 [43]: > 90.4 µM (inactive)
- GI50 [44]: 61 µM (inactive)
- GI50 [45]: > 74 µM (inactive)
- GI50 [46]: > 100 µM (inactive)
- GI50 [47]: > 100 µM
- GI50 [48]: > 100 µM (inactive)
- GI50 [49]: > 88.9 µM (inactive)
- GI50 [50]: > 100 µM (inactive)
- GI50 [51]: > 100 µM (inactive)
- GI50 [52]: > 100 µM (inactive)
- GI50 [53]: > 100 µM (inactive)
- GI50 [54]: > 100 µM (inactive)
- GI50 [55]: > 100 µM (inactive)
- GI50 [56]: > 100 µM (inactive)
- GI50 [57]: > 66.4 µM (inactive)

Structure (SMILES): COc1ccc(C2N3CCCCC3[C@@H]3c4[nH]c5ccccc5c4CCN23)c(OC)c1 (some centres not stated)
- GI50 [1]: 15.8 µM (inactive)
- GI50 [2]: 26.9 µM (inactive)
- GI50 [3]: 23.6 µM (inactive)
- GI50 [4]: 22 µM (inactive)
- GI50 [5]: 25.2 µM (inactive)
- GI50 [6]: 33.3 µM (inactive)
- GI50 [7]: 19.1 µM (inactive)
- GI50 [8]: 26.2 µM (inactive)
- GI50 [10]: 16.4 µM (inactive)
- GI50 [11]: 30.4 µM (inactive)
- GI50 [12]: 20 µM (inactive)
- GI50 [14]: 18.9 µM (inactive)
- GI50 [15]: 49.9 µM (inactive)
- GI50 [16]: 18 µM (inactive)
- GI50 [18]: 16.3 µM (inactive)
- GI50 [19]: 16.8 µM (inactive)
- GI50 [21]: 24.6 µM (inactive)
- GI50 [23]: 22.6 µM (inactive)
- GI50 [24]: 21.8 µM (inactive)
- GI50 [25]: > 100 µM (inactive)
- GI50 [26]: 16.3 µM (inactive)
- GI50 [27]: 45.1 µM (inactive)
- GI50 [28]: 18.5 µM (inactive)
- GI50 [29]: 21.1 µM (inactive)
- GI50 [30]: 39.4 µM (inactive)
- GI50 [31]: 18.7 µM (inactive)
- GI50 [33]: 14.6 µM (inactive)
- GI50 [34]: 21 µM (inactive)
- GI50 [35]: 15.8 µM (inactive)
- GI50 [36]: 52 µM (inactive)
- GI50 [37]: 84.7 µM (inactive)
- GI50 [38]: 23.5 µM (inactive)
- GI50 [39]: 18.2 µM (inactive)
- GI50 [40]: 33.4 µM (inactive)
- GI50 [41]: 14.1 µM (inactive)
- GI50 [58]: 25.5 µM (inactive)
- GI50 [42]: 21.1 µM (inactive)
- GI50 [43]: > 100 µM (inactive)
- GI50 [44]: 14.1 µM (inactive)
- GI50 [45]: 33.7 µM (inactive)
- GI50 [46]: 40.8 µM (inactive)
- GI50 [47]: 28 µM
- GI50 [49]: 42.3 µM (inactive)
- GI50 [50]: 33.7 µM (inactive)
- GI50 [51]: 15.5 µM (inactive)
- GI50 [52]: 26.7 µM (inactive)
- GI50 [53]: 18.2 µM (inactive)
- GI50 [55]: 18.8 µM (inactive)
- GI50 [56]: 22.2 µM (inactive)
- GI50 [57]: 28.4 µM (inactive)

Structure (SMILES): COC(=O)C12CC3CC(C1)CC(C(=O)OC)(C3)C2
- GI50 [1]: > 100 µM (inactive)
- GI50 [2]: > 100 µM (inactive)
- GI50 [3]: > 100 µM (inactive)
- GI50 [4]: > 100 µM (inactive)
- GI50 [5]: > 100 µM (inactive)
- GI50 [6]: > 100 µM (inactive)
- GI50 [7]: > 100 µM (inactive)
- GI50 [8]: > 100 µM (inactive)
- GI50 [9]: > 100 µM (inactive)
- GI50 [10]: > 100 µM (inactive)
- GI50 [11]: > 100 µM (inactive)
- GI50 [12]: > 100 µM (inactive)
- GI50 [13]: > 100 µM (inactive)
- GI50 [14]: > 100 µM (inactive)
- GI50 [15]: > 100 µM (inactive)
- GI50 [16]: > 100 µM (inactive)
- GI50 [18]: > 100 µM (inactive)
- GI50 [19]: > 100 µM (inactive)
- GI50 [21]: > 100 µM (inactive)
- GI50 [22]: > 100 µM (inactive)
- GI50 [23]: > 100 µM (inactive)
- GI50 [24]: > 100 µM (inactive)
- GI50 [25]: > 100 µM (inactive)
- GI50 [26]: > 100 µM (inactive)
- GI50 [27]: > 100 µM (inactive)
- GI50 [28]: > 100 µM (inactive)
- GI50 [29]: > 100 µM (inactive)
- GI50 [30]: > 100 µM (inactive)
- GI50 [31]: > 100 µM (inactive)
- GI50 [32]: > 100 µM (inactive)
- GI50 [34]: > 100 µM (inactive)
- GI50 [35]: > 100 µM (inactive)
- GI50 [36]: > 100 µM (inactive)
- GI50 [37]: > 100 µM (inactive)
- GI50 [38]: > 100 µM (inactive)
- GI50 [40]: > 100 µM (inactive)
- GI50 [58]: > 100 µM (inactive)
- GI50 [42]: > 100 µM (inactive)
- GI50 [43]: > 100 µM (inactive)
- GI50 [44]: > 100 µM (inactive)
- GI50 [45]: > 100 µM (inactive)
- GI50 [46]: > 100 µM (inactive)
- GI50 [47]: > 100 µM
- GI50 [48]: > 100 µM (inactive)
- GI50 [49]: > 100 µM (inactive)
- GI50 [50]: > 100 µM (inactive)
- GI50 [51]: > 100 µM (inactive)
- GI50 [53]: 55.8 µM (inactive)
- GI50 [54]: > 100 µM (inactive)
- GI50 [55]: > 100 µM (inactive)
- GI50 [56]: > 100 µM (inactive)
- GI50 [57]: > 100 µM (inactive)

Structure (SMILES): C1=CC2CCC1CN2CCC1CNc2ccccc21 (configuration not stated)
- GI50 [1]: > 100 µM (inactive)
- GI50 [2]: > 100 µM (inactive)
- GI50 [3]: > 100 µM (inactive)
- GI50 [5]: > 100 µM (inactive)
- GI50 [6]: > 100 µM (inactive)
- GI50 [7]: > 100 µM (inactive)
- GI50 [8]: > 100 µM (inactive)
- GI50 [9]: > 100 µM (inactive)
- GI50 [10]: > 100 µM (inactive)
- GI50 [11]: > 100 µM (inactive)
- GI50 [12]: > 100 µM (inactive)
- GI50 [13]: > 100 µM (inactive)
- GI50 [14]: > 100 µM (inactive)
- GI50 [15]: > 100 µM (inactive)
- GI50 [16]: > 100 µM (inactive)
- GI50 [17]: > 100 µM (inactive)
- GI50 [18]: > 100 µM (inactive)
- GI50 [19]: > 100 µM (inactive)
- GI50 [20]: > 100 µM (inactive)
- GI50 [21]: > 100 µM (inactive)
- GI50 [22]: > 100 µM (inactive)
- GI50 [23]: > 100 µM (inactive)
- GI50 [24]: > 100 µM (inactive)
- GI50 [25]: > 100 µM (inactive)
- GI50 [27]: > 100 µM (inactive)
- GI50 [28]: > 100 µM (inactive)
- GI50 [29]: > 100 µM (inactive)
- GI50 [30]: > 100 µM (inactive)
- GI50 [31]: > 100 µM (inactive)
- GI50 [32]: > 100 µM (inactive)
- GI50 [33]: > 100 µM (inactive)
- GI50 [34]: > 100 µM (inactive)
- GI50 [35]: > 100 µM (inactive)
- GI50 [37]: > 100 µM (inactive)
- GI50 [38]: 64.9 µM (inactive)
- GI50 [39]: > 10 µM (inactive)
- GI50 [40]: > 100 µM (inactive)
- GI50 [41]: 75.3 µM (inactive)
- GI50 [42]: > 100 µM (inactive)
- GI50 [43]: > 100 µM (inactive)
- GI50 [44]: 52.7 µM (inactive)
- GI50 [45]: > 100 µM (inactive)
- GI50 [46]: > 100 µM (inactive)
- GI50 [48]: > 100 µM (inactive)
- GI50 [49]: > 100 µM (inactive)
- GI50 [50]: > 100 µM (inactive)
- GI50 [51]: > 100 µM (inactive)
- GI50 [52]: > 100 µM (inactive)
- GI50 [53]: > 100 µM (inactive)
- GI50 [54]: > 100 µM (inactive)
- GI50 [55]: > 100 µM (inactive)
- GI50 [56]: > 100 µM (inactive)
- GI50 [57]: > 100 µM (inactive)

— ChEMBL document CHEMBL1201862, “PubChem BioAssay data set” (2004)
